Holding throughout (format): functional
In test [1] the test system is Klebsiella oxytoca. In words: Antimicrobial activity against Klebsiella oxytoca KO279 harboring beta-lactamase OXY-1 by Etest method.
In test [2] the test system is Klebsiella oxytoca. Briefly: Antimicrobial activity against Klebsiella oxytoca KO280 harboring beta-lactamase OXY-1 by Etest method.
Test [3] concerns Klebsiella oxytoca. Briefly: Antimicrobial activity against Klebsiella oxytoca KO281 harboring beta-lactamase OXY-1 and CMY-2 by Etest method.
Test [4] has as its system Klebsiella pneumoniae. Briefly: Antimicrobial activity against Klebsiella pneumoniae 101A harboring beta-lactamase CMY-2 by Etest method.
Test [5] has as its system Klebsiella pneumoniae. Briefly: Antimicrobial activity against Klebsiella pneumoniae 278 harboring beta-lactamase OXY-1 by Etest method.
Test [6] concerns Klebsiella pneumoniae. Briefly: Antimicrobial activity against Klebsiella pneumoniae 278sp by Etest method.
Test [7] has as its system Escherichia coli. In words: Antimicrobial activity against Escherichia coli TF-KO279 harboring beta-lactamase OXY-1 by Etest method.
Test [8] deals with Escherichia coli. Briefly: Antimicrobial activity against Escherichia coli TF-KO281 harboring beta-lactamase OXY-1 by Etest method.
The test system of test [9] is Escherichia coli. Briefly: Antimicrobial activity against Escherichia coli TF-KP278 harboring beta-lactamase OXY-1 by Etest method.
Test [10] relates to Escherichia coli. In words: Antimicrobial activity against Escherichia coli DH5alpha by Etest method. The conditions noted are these: DH5[alpha].

In brackets after ≈: the same amount, converted by molar mass.

Usually MIC stands for the least concentration at which growth counts as inhibited.

As for `C[C@@H](O)[C@H]1C(=O)N2C(C(=O)O)=C(SCCNC=N)C[C@H]12` [IMIPENEM ANHYDROUS], the MIC against Klebsiella oxytoca [1] is 0.25 µg/mL (≈ 0.835 µM); with Klebsiella oxytoca [2], 0.25 µg/mL (≈ 0.835 µM); in the test with Klebsiella oxytoca [3], 0.25 µg/mL (≈ 0.835 µM); in the test on Klebsiella pneumoniae [4], 0.38 µg/mL (≈ 1.27 µM); against Klebsiella pneumoniae [5], 0.25 µg/mL (≈ 0.835 µM); in the test on Klebsiella pneumoniae [6], 0.25 µg/mL (≈ 0.835 µM). For the same molecule, the MIC with Escherichia coli [7], against Escherichia coli [8], with Escherichia coli [9] and against Escherichia coli [10] was 0.19 µg/mL (≈ 0.635 µM) throughout.
`CO/N=C(\C(=O)N[C@@H]1C(=O)N2C(C(=O)[O-])=C(C[N+]3(C)CCCC3)CS[C@H]12)c1csc(N)n1` [CEFEPIME]: the minimal inhibitory concentration (MIC) with Klebsiella oxytoca [1] was 1.5 µg/mL (≈ 3.12 µM); against Klebsiella oxytoca [2], 1.5 µg/mL (≈ 3.12 µM); in the test on Klebsiella oxytoca [3], 1.5 µg/mL (≈ 3.12 µM); with Klebsiella pneumoniae [4], 0.5 µg/mL (≈ 1.04 µM); in the test on Klebsiella pneumoniae [5], 1 µg/mL (≈ 2.08 µM); in the test on Klebsiella pneumoniae [6], 0.19 µg/mL (≈ 0.395 µM). In addition, the minimum inhibitory concentration (MIC) with Escherichia coli [8] was determined as 0.38 µg/mL (≈ 0.791 µM); in the test with Escherichia coli [10], 0.032 µg/mL (≈ 0.0666 µM).
In the case of `O=C(O)c1cn(C2CC2)c2cc(N3CCNCC3)c(F)cc2c1=O` [CIPROFLOXACIN], the MIC was found to be 0.38 µg/mL (≈ 1.15 µM) in the test with Klebsiella oxytoca [1]; 0.25 µg/mL (≈ 0.754 µM) in the test on Klebsiella oxytoca [2]; 0.38 µg/mL (≈ 1.15 µM) against Klebsiella oxytoca [3]; 0.047 µg/mL (≈ 0.142 µM) against Klebsiella pneumoniae [4]; 0.38 µg/mL (≈ 1.15 µM) against Klebsiella pneumoniae [5]; 0.047 µg/mL (≈ 0.142 µM) in the test on Klebsiella pneumoniae [6]. For the same molecule, the MIC with Escherichia coli [10] worked out at 0.032 µg/mL (≈ 0.0966 µM).
With `CO/N=C(\C(=O)N[C@@H]1C(=O)N2C(C(=O)O)=C(COC(C)=O)CS[C@H]12)c1csc(N)n1` [CEFOTAXIME], the MIC came out at 1.5 µg/mL (≈ 3.29 µM) with Klebsiella oxytoca [1]; 1.5 µg/mL (≈ 3.29 µM) with Klebsiella oxytoca [2]; 16 µg/mL (≈ 35.1 µM) in the test with Klebsiella oxytoca [3]; 6 µg/mL (≈ 13.2 µM) in the test on Klebsiella pneumoniae [4]; 1 µg/mL (≈ 2.2 µM) against Klebsiella pneumoniae [5]; 0.047 µg/mL (≈ 0.103 µM) in the test with Klebsiella pneumoniae [6]. Moreover, the minimal inhibitory concentration (MIC) turned out to be 0.25 µg/mL (≈ 0.549 µM) against Escherichia coli [7], 0.38 µg/mL (≈ 0.834 µM) in the test with Escherichia coli [8], 0.25 µg/mL (≈ 0.549 µM) against Escherichia coli [9] and 0.023 µg/mL (≈ 0.0505 µM) in the test on Escherichia coli [10].
`CO[C@@]1(NC(=O)Cc2cccs2)C(=O)N2C(C(=O)O)=C(COC(N)=O)CS[C@@H]21` [CEFOXITIN]: the MIC was 3 µg/mL (≈ 7.02 µM) against Klebsiella oxytoca [1]; 3 µg/mL (≈ 7.02 µM) with Klebsiella oxytoca [2]; no less than 256 µg/mL against Klebsiella oxytoca [3]; no less than 256 µg/mL against Klebsiella pneumoniae [4]; 4 µg/mL (≈ 9.36 µM) with Klebsiella pneumoniae [5]; 4 µg/mL (≈ 9.36 µM) against Klebsiella pneumoniae [6]. Further, the minimal inhibitory concentration (MIC) against Escherichia coli [7], with Escherichia coli [8], in the test with Escherichia coli [9] and against Escherichia coli [10] was 2 µg/mL (≈ 4.68 µM) throughout.
As to `CC1(C)S[C@@H]2[C@H](NC(=O)[C@H](N)c3ccccc3)C(=O)N2[C@H]1C(=O)O` [AMPICILLIN], the minimal inhibitory concentration (MIC) is no less than 256 µg/mL with Klebsiella oxytoca [1]; no less than 256 µg/mL in the test with Klebsiella oxytoca [2]; no less than 256 µg/mL against Klebsiella oxytoca [3]; no less than 256 µg/mL in the test on Klebsiella pneumoniae [4]; no less than 256 µg/mL against Klebsiella pneumoniae [5]; 96 µg/mL (≈ 275 µM) with Klebsiella pneumoniae [6]. The minimal inhibitory concentration (MIC) with Escherichia coli [7] was no less than 256 µg/mL; in the test on Escherichia coli [8], no less than 256 µg/mL; with Escherichia coli [9], no less than 256 µg/mL; with Escherichia coli [10], 4 µg/mL (≈ 11.4 µM).
For `CC(C)(O/N=C(\C(=O)N[C@@H]1C(=O)N2C(C(=O)[O-])=C(C[n+]3ccccc3)CS[C@H]12)c1csc(N)n1)C(=O)O` [CEFTAZIDIME], the minimal inhibitory concentration (MIC) against Klebsiella oxytoca [1] was 4 µg/mL (≈ 7.32 µM); in the test with Klebsiella oxytoca [2], 4 µg/mL (≈ 7.32 µM); against Klebsiella oxytoca [3], no less than 256 µg/mL; in the test on Klebsiella pneumoniae [4], 64 µg/mL (≈ 117 µM); against Klebsiella pneumoniae [5], 1.5 µg/mL (≈ 2.74 µM); in the test on Klebsiella pneumoniae [6], 1 µg/mL (≈ 1.83 µM). Further, the minimal inhibitory concentration (MIC) in the test on Escherichia coli [7] worked out at 0.75 µg/mL (≈ 1.37 µM); with Escherichia coli [8], 1 µg/mL (≈ 1.83 µM); in the test on Escherichia coli [9], 0.75 µg/mL (≈ 1.37 µM); in the test on Escherichia coli [10] it was 0.25 µg/mL (≈ 0.457 µM).
Turning to `CCn1cc(C(=O)O)c(=O)c2cc(F)c(N3CCNCC3)cc21` [NORFLOXACIN], the MIC against Klebsiella oxytoca [1] amounted to 1.5 µg/mL (≈ 4.7 µM); against Klebsiella oxytoca [2] it was 1 µg/mL (≈ 3.13 µM); against Klebsiella oxytoca [3] it was 1.5 µg/mL (≈ 4.7 µM); against Klebsiella pneumoniae [4], 0.125 µg/mL (≈ 0.391 µM); in the test with Klebsiella pneumoniae [5] it was 1 µg/mL (≈ 3.13 µM); in the test on Klebsiella pneumoniae [6], 0.125 µg/mL (≈ 0.391 µM). Moreover, the MIC in the test with Escherichia coli [7] came to 0.5 µg/mL (≈ 1.57 µM); against Escherichia coli [8], 0.5 µg/mL (≈ 1.57 µM); with Escherichia coli [9] it was 0.38 µg/mL (≈ 1.19 µM); with Escherichia coli [10], 0.094 µg/mL (≈ 0.294 µM).
In the case of `C[C@H]1[C@H](NC(=O)/C(=N\OC(C)(C)C(=O)O)c2csc(N)n2)C(=O)N1S(=O)(=O)O` [AZTREONAM], the MIC is no less than 256 µg/mL in the test on Klebsiella oxytoca [1]; no less than 256 µg/mL against Klebsiella oxytoca [2]; no less than 256 µg/mL with Klebsiella oxytoca [3]; 6 µg/mL (≈ 13.8 µM) with Klebsiella pneumoniae [4]; 32 µg/mL (≈ 73.5 µM) against Klebsiella pneumoniae [5]; 0.064 µg/mL (≈ 0.147 µM) against Klebsiella pneumoniae [6]. Also, the MIC was 64 µg/mL (≈ 147 µM) against Escherichia coli [7], 128 µg/mL (≈ 294 µM) against Escherichia coli [8], 64 µg/mL (≈ 147 µM) against Escherichia coli [9] and 0.023 µg/mL (≈ 0.0528 µM) in the test on Escherichia coli [10].

The values are drawn from ChEMBL document CHEMBL1649490, “First detection of plasmid-encoded blaOXY beta-lactamase” (2009).
